Patent publication US20200246364A1, “MEDICAL APPLICATION OF COMPOSITION OF FRUCTOSE-1,6-BISPHOSPHATE AND BLOOD CONCENTRATION STABILIZER THEREOF” (ZHEJIANG UNIVERSITY, priority 2017, published 2020)
Marks after values point to notes of the source that are not given here.

Key:
U251 = test: Reactive oxygen species and mitochondrial membrane potential; type: cell-based, human; conditions: U251, 0.8 mM
glioma cells SHG-44 = test: Lactic acid released by glioma cells (glycolysis); type: cell-based, human
Method: (§2) Human glioma cell strains (U87-MG, KNS-89, SHG-44) were respectively incubated in culture media containing 0.8 mM of trisodium fructose-1,6-bisphosphate salt, and 1.6 mM of trisodium fructose-1,6-bisphosphate salt, and 1.6 mM of 2-deoxyglucose, and the contents of lactic acid as the final glycolytic product released by the cells in the culture media were measured after 12 h, 24 h, 36 h, and 48 h. […] Human glioma cell strain (U87-MG) was incubated in the culture medium containing 0.8 mM of trisodium fructose-1,6-bisphosphate salt for 1 h, 3 h, 6 h, 12 h, 24 h, 36 h, and 48 h, and level changes of key metabolic enzymes in the glycolytic pathway of cells were measured by Western Blot at the respective time points.

[1] = system: patient-derived glioma cells Tumor 3; test: Intracellular glycolytic intermediates (LC-MS/MS) and FBP in culture medium; type: cell-based, human; conditions: Tumor 3, 1.6 mM, 36 h
Method: (§1) Rat glioma cell strains (C6), human glioma cell strains (U87-MG, U-251, SHG-44) and patient-derived glioma cells (tumor 1, tumor 3) were incubated in a culture medium containing 1.6 mM of trisodium fructose-1,6-bisphosphate, and after 36 h, levels of glycolytic intermediates including glucose-6-phosphate G6P, fructose-1,6-bisphosphate FBP, glyceraldehyde 3-phosphate (GAP), dihydroxyacetone phosphate (DHAP), and […] 3-phosphoglyceric acid PGA in respective cells were measured by using LC-MS/MS; and additionally, the levels of fructose-1,6-bisphosphate in each glioma cell strain at 12 h and 36 h were measured.

[2] = system: patient-derived glioma cells Tumor 1; test: as above; type: cell-based, human; conditions: Tumor 1, 1.6 mM, 36 h
Method: as §1

U87-MG = test: as above; type: cell-based, human; conditions: 1.6 mM, 36 h
Method: as §1

SHG-44 = test: as above; type: cell-based, human; conditions: SHG-44, 1.6 mM, 36 h
Method: as §1

Huh-7 = test: Cell viability, Sulforhodamine B (SRB) staining; type: cell-based, human; conditions: Homo sapiens, Huh-7, 72 h, FBP 0.8 mM
Method: (§3) Human liver cancer cell strains Bel-7402 and huh-7, which had been incubated for 24 hours, were respectively incubated in a medium containing 1.6 mM or 0.8 mM of trisodium fructose-1,6-bisphosphate, a medium containing 0.2 mM of metformin or 25 μM of sitagliptin, and a medium containing 0.8 mM of trisodium fructose-1,6-bisphosphate and 0.2 mM of metformin/25 μM of sitagliptin for 72 h. A control group (Con) was not treated with the agent. Cell viability was determined by Sulforhodamine B (SRB) staining analysis method.

C6 [3] = test: Mitochondrial oxidative phosphorylation in glioma cells (ATP/ADP, NADH/NAD+, ATP); type: cell-based, rat
[4] = healthy volunteers, intravenous infusion 250 mg/kg, cited from earlier work
[5] = Weight gain and fat accumulation caused by high-fat diet; type: in vivo, ICR mice; conditions: high-fat diet mice
Method: 40 ICR male mice (17-19 g/per mouse) were divided into 2 groups. […] The animals of the normal group (Naive) were still fed with the basic feed, and the model animals were equally divided into 4 groups and were further fed with the high-fat diet. In addition, according to the amount of water the mice had consumed, a certain dose of the agent was dissolved in drinking water. The animals in the model group (Model) were fed with the purified water, the animals in the fructose-1,6-bisphosphate group were fed with water containing 0.18% of 8-molecule hydrate of sodium fructose-1,6-bisphosphate (equivalent to FBP 300 mg/kg), the animals in the sitagliptin group were fed with water containing 0.012% of sitagliptin phosphate salt (equivalent to STG 20 mg/kg), and the animals in the combination group were fed with water containing FBP 500 mg/kg+STG 20 mg/kg. The treatment lasted continuously for 6 weeks, the body weight, food intake and water intake were measured per week, the body weight and body length (CM) were measured on the last day of the last week, and a Lee's INDEX (Lee's INDEX=body weight (g)^(1/3) * 1000/body length (cm)) was calculated to evaluate the state of animal obesity. Then, the animals were sacrificed by cervical vertebra dislocation and the mice were dissected, the epididymal fat pad was taken and weighed, and a fat coefficient was calculated to further investigate the degree of obesity of the mice.

[6] = system: mouse liver cancer cells H22; test: Tumor growth of mouse liver cancer H22 model; type: in vivo, ICR mice; conditions: FBP 500 mg/kg, i.g., 7 days; for Tumor weight: three times per day
Method: The treatment was performed three times per day, in which metformin or sitagliptin was administrated 0.5 h before trisodium fructose-1,6-bisphosphate. This is repeated for 7 days, and situations of the animals during the experiments were observed. The animals were sacrificed 24 hours after the last treatment, the tumor masses were taken out and weighed, and the average tumor weight in each group of animals was used as an efficacy index.

HCT-8 = test: Cell viability, Sulforhodamine B (SRB) staining; type: cell-based, human; conditions: Homo sapiens, HCT-8, 72 h, FBP 0.8 mM
Method: Human intestinal cancer cell strains SW620 and HCT-8, which had been incubated for 24 hours, were respectively incubated in a medium containing 0.8 mM of trisodium fructose-1,6-bisphosphate, a medium containing 0.2 mM of metformin/100 μM of sitagliptin, and a medium containing 0.8 mM of trisodium fructose-1,6-bisphosphate and 0.2 mM of metformin/100 μM of sitagliptin for 72 h. A control group (Con) was not treated with the agent. Cell viability was determined by Sulforhodamine B (SRB) staining analysis method.

glioma cells KNS-89 = test: Lactic acid released by glioma cells (glycolysis); type: cell-based, human
Method: as §2

C6 [7] = test: Glutathiones and NADPH/NADP+ (LC-MS/MS); type: cell-based, rat; conditions: C6, 1.6 mM, 36 h
Method: Rat glioma cell strain (C6) and human glioma cell strain (KNS-89, SHG-44) were respectively cultured in a medium containing 1.6 mM of trisodium fructose-1,6-bisphosphate for 36 h, and important antioxidants in cells were measured by liquid-mass spectrometry (LC-MS/MS).

Bel-7402 = test: cells; conditions: Homo sapiens, Bel-7402, 72 h, read-out: cell viability inhibited
Method: as §3

glioma cells U87-MG = test: Lactic acid released by glioma cells (glycolysis); type: cell-based, human
Method: as §2

U87MG = test: Tricarboxylic acid circulation intermediates in cytoplasm and mitochondria (LC-MS/MS); type: cell-based, human; conditions: 1.6 mM, 36 h
Method: Human glioma cell strain (U87MG) was cultured in a medium containing 1.6 mM of trisodium fructose-1,6-bisphosphate for 36 h, and then cytoplasm and mitochondria were separated. Levels of tricarboxylic acid circulation intermediates in cytoplasm and mitochondria were respectively measured by LC-MS/MS.

O=C(COP(=O)(O)O)[C@@H](O)[C@H](O)[C@H](O)COP(=O)(O)O [FBP, fructose-1,6-bisphosphate]
Relative level of mitochondrial membrane potential (compared with the control group) (U251; 12 h): 1.08 ± 0.03 | Relative level of reactive oxygen species (compared with the control group) (U251; 12 h): 1.20 ± 0.04 | Relative level of mitochondrial membrane potential (compared with the control group) (U251; 24 h): 1.18 ± 0.01 | Relative level of reactive oxygen species (compared with the control group) (U251; 24 h): 1.19 ± 0.03 | Relative level of mitochondrial membrane potential (compared with the control group) (U251; 48 h): 0.6 ± 0.06 | Relative level of reactive oxygen species (compared with the control group) (U251; 48 h): 1.42 ± 0.03 | Relative level of mitochondrial membrane potential (compared with the control group) (U251; 72 h): 0.4 ± 0.07 | Relative level of reactive oxygen species (compared with the control group) (U251; 72 h): 1.82 ± 0.03 | Relative levels of lactic acid (compared with the control group) (glioma cells SHG-44; SHG-44, 0.8 mM, 12 h): 1.06 ± 0.05 | Relative levels of lactic acid (compared with the control group) (glioma cells SHG-44; SHG-44, 0.8 mM, 24 h): 0.87 ± 0.01 | Relative levels of lactic acid (compared with the control group) (glioma cells SHG-44; SHG-44, 0.8 mM, 36 h): 0.83 ± 0.05 | Relative levels of lactic acid (compared with the control group) (glioma cells SHG-44; SHG-44, 1.6 mM, 12 h): 0.89 ± 0.09 | Relative levels of lactic acid (compared with the control group) (glioma cells SHG-44; SHG-44, 1.6 mM, 24 h): 0.75 ± 0.07 | Relative levels of lactic acid (compared with the control group) (glioma cells SHG-44; SHG-44, 1.6 mM, 36 h): 0.58 ± 0.06 | Increase folds of intracellular DHAP (compared with the control group) [1]: 55.58 folds | Increase folds of intracellular F6P (compared with the control group) [1]: 14.12 folds | Increase folds of intracellular FBP (compared with the control group) [1]: 22.94 folds | Increase folds of intracellular GAP (compared with the control group) [1]: 76.22 folds | Increase folds of intracellular PGA (compared with the control group) [1]: 1.86 folds | Increase folds of intracellular DHAP (compared with the control group) [2]: 4.9 folds | Increase folds of intracellular F6P (compared with the control group) [2]: 2.02 folds | Increase folds of intracellular FBP (compared with the control group) [2]: 8.27 folds | Increase folds of intracellular GAP (compared with the control group) [2]: 7.22 folds | Increase folds of intracellular PGA (compared with the control group) [2]: 1.13 folds | Increase folds of intracellular DHAP (compared with the control group) (U87-MG): 944.4 folds | Increase folds of intracellular F6P (compared with the control group) (U87-MG): 47.31 folds | Increase folds of intracellular FBP (compared with the control group) (U87-MG): 149.69 folds | Increase folds of intracellular GAP (compared with the control group) (U87-MG): 1222.86 folds | Increase folds of intracellular PGA (compared with the control group) (U87-MG): 3.03 folds | Increase folds of intracellular DHAP (compared with the control group) (SHG-44): 12.48 folds | Increase folds of intracellular F6P (compared with the control group) (SHG-44): 3.12 folds | Increase folds of intracellular FBP (compared with the control group) (SHG-44): 10.74 folds | Increase folds of intracellular GAP (compared with the control group) (SHG-44): 21.03 folds | Increase folds of intracellular PGA (compared with the control group) (SHG-44): 2.04 folds | viability at 800 µM (Huh-7; STG 25 μM, read-out: cell viability (Con = 100)): 80.4 ± 3.63% | cytotoxicity at 800 µM (Huh-7; sitagliptin 25 μM, read-out: cell viability inhibited): 20% | ratio of ATP/ADP (CON = 1.00) (C6 [3]; C6, 0.8 mM or 1.6 mM, 36 h): 10.89 ± 1.37 | ratio of NADH/NAD+ (CON = 1.00) (C6 [3]; C6, 0.8 mM or 1.6 mM, 36 h): 7.76 ± 0.59 | ATP level (C6 [3]; C6, 36 h, vs control group): significantly increased | blood concentration ([4]; within 5 minutes): 770 µg/mL | half-life [4]: 10 to 15 min | fat coefficient (epididymal fat pad) ([5]; 6 weeks, model group 3.96±0.83%, normal group 1.58±0.68%): 2.81±0.81% | Lee's INDEX ([5]; 6 weeks, model group 353.28±9.64, normal group 337.05±9.96): 326.14±11.10 | body weight after 6 weeks ([5]; agents in drinking water, FBP 300 mg/kg, STG 20 mg/kg, combination FBP 500 mg/kg+STG 20 mg/kg, model group 47.89±3.34): 45.93 ± 5.1 g | Tumor weight ([6]; H22, metformin experiment, Met 150 mg/kg, Con 1.66 ± 0.29): 0.91 ± 0.23 g | Tumor weight ([6]; H22, sitagliptin experiment, STG 20 mg/kg, Con 1.48 ± 0.34): 0.67 ± 0.28 g | inhibition of tumor growth (inhibition ratio) ([6]; H22, metformin 150 mg/kg, sitagliptin 20 mg/kg): 54.39% | viability at 800 µM (HCT-8; STG 100 μM, read-out: cell viability (Con = 100)): 85.9 ± 3.29% | cytotoxicity at 800 µM (HCT-8; sitagliptin 100 μM, read-out: cell viability inhibited): 41% | Relative levels of lactic acid (compared with the control group) (glioma cells KNS-89; KNS-89, 0.8 mM, 12 h): 0.75 ± 0.11 | Relative levels of lactic acid (compared with the control group) (glioma cells KNS-89; KNS-89, 0.8 mM, 24 h): 0.94 ± 0.16 | Relative levels of lactic acid (compared with the control group) (glioma cells KNS-89; KNS-89, 0.8 mM, 36 h): 0.78 ± 0.09 | Relative levels of lactic acid (compared with the control group) (glioma cells KNS-89; KNS-89, 1.6 mM, 12 h): 0.87 ± 0.03 | Relative levels of lactic acid (compared with the control group) (glioma cells KNS-89; KNS-89, 1.6 mM, 24 h): 0.83 ± 0.20 | Relative levels of lactic acid (compared with the control group) (glioma cells KNS-89; KNS-89, 1.6 mM, 36 h): 0.62 ± 0.10 | Relative content of GSH (compared with the control group) (C6 [7]): 0.69 ± 0.01 | Relative content of GSSG (compared with the control group) (C6 [7]): 0.06 ± 0.00 | Relative ratio of NADPH to NADP+ (compared with the control group) (C6 [7]): 0.14 ± 0.01 | cytotoxicity at 800 µM (Bel-7402): 41% | Relative levels of lactic acid (compared with the control group) (glioma cells U87-MG; 0.8 mM, 12 h): 0.96 ± 0.13 | Relative levels of lactic acid (compared with the control group) (glioma cells U87-MG; 0.8 mM, 24 h): 0.73 ± 0.05 | Relative levels of lactic acid (compared with the control group) (glioma cells U87-MG; 0.8 mM, 36 h): 0.56 ± 0.18 | Relative levels of lactic acid (compared with the control group) (glioma cells U87-MG; 1.6 mM, 12 h): 1.09 ± 0.11 | Relative levels of lactic acid (compared with the control group) (glioma cells U87-MG; 1.6 mM, 24 h): 0.71 ± 0.05 | Relative levels of lactic acid (compared with the control group) (glioma cells U87-MG; 1.6 mM, 36 h): 0.39 ± 0.03 | Relative level of Ac-CoA (compared with the control group) (U87MG; cytoplasm): 0.02 ± 0.01 | Relative level of Cit (compared with the control group) (U87MG; cytoplasm): 0.28 ± 0.01 | Relative level of OAA (compared with the control group) (U87MG; cytoplasm): 0.19 ± 0.01 | Relative level of α-KG (compared with the control group) (U87MG; cytoplasm): 1.20 ± 0.12*^ | Relative level of Ac-CoA (compared with the control group) (U87MG; mitochondria): 1.38 ± 0.11 | Relative level of Cit (compared with the control group) (U87MG; mitochondria): 1.02 ± 0.06 | Relative level of OAA (compared with the control group) (U87MG; mitochondria): 2.02 ± 0.13 | Relative level of α-KG (compared with the control group) (U87MG; mitochondria): 2.42 ± 0.04
